{
  "source": "patent US12629348B2",
  "about": "“Method and composition for treating osteoarthritis” (Vireo Systems, Inc., priority 2013, dated 2026)",
  "key": {"canines having OA [1]": {"tested_on": "canines having OA", "assay": "Double-blind randomized trial in OA canines: owner assessment of pain and mobility (Helsinki chronic pain index, HCPI)", "type": "in vivo, canine", "experimental": "The following example evaluates the effectiveness of Alpha-GEE on both pain and mobility in a double-blind randomized trial in canines having OA. […] Together these findings provide clinical evidence of the effectiveness of treatments with Alpha-GEE in reducing the pain and restricted mobility of canines with OA.\nThe double-blind study was performed on a total of 30 adult canines of various breeds in five different private practice clinics. Owner consent was obtained prior to participation in the study. Each clinic was responsible for enrolling 6 canines into the study. Inclusion criteria for the study consisted of clinical assessment and radiograph confirmation of OA in at least one joint and a score of 22 or greater on the Helsinki chronic pain index (“HCPI”). Use of NSAIDs or other dietary supplements for OA were allowed, provided the current treatment regimens had not been altered for a period of at least three months. A randomized block design was used with canines assigned in a one to one ratio into either placebo (36 mg/kg/day maltose-dextran; Vireo Resources, Plattsmouth, NE) or Alpha-GEE (36 mg/kg/day; Vireo Resources, Plattsmouth, NE) treatment group. The block size was six canines, corresponding to the total number of canines enrolled from each clinic. Group assignments for each canine were blinded to both the owners and attending veterinarian until all the data was collected and reported. Both Alpha-GEE and placebo were provided in 400 mg capsules and owners were instructed on the proper method for daily oral administration of capsules to their canines and provided with the appropriate number of capsules for the duration of the 2-week study. Blood samples were taken at both the start and conclusion of the two-week trial period to monitor for changes in blood chemistry as well as potential changes in inflammatory markers as described below. Owners completed the HCPI prior to starting the study, one-week after starting the study, and a final time at the conclusion of the study at two-weeks.\nStatistical evaluations of pain (HCPI), mobility (pedometer readings), and inflammatory markers were performed using ANOVA and Student Newman Keuls post-hoc comparison of means.\nOwner assessment of pain and mobility in canines participating in the trial were based on the HCPI. The HCPI is a method for appraisal of pain and mobility in canines. The assessment is based on owner responses to eleven questions with a numerical answer between 0-4. Scoring on the HCPI ranges from 0 to 44, with higher numbers reflecting more pain and immobility present in the canine. Canines in both placebo and treatment group had similar initial pre-trial HCPI scores. […]"}, "canines having OA [2]": {"tested_on": "canines having OA", "assay": "Double-blind randomized trial in OA canines: daily activity by pedometer", "type": "in vivo, canine", "settings": "36 mg/kg/day oral", "experimental": "The double-blind study was performed on a total of 30 adult canines of various breeds in five different private practice clinics. Owner consent was obtained prior to participation in the study. Each clinic was responsible for enrolling 6 canines into the study. Inclusion criteria for the study consisted of clinical assessment and radiograph confirmation of OA in at least one joint and a score of 22 or greater on the Helsinki chronic pain index (“HCPI”). Use of NSAIDs or other dietary supplements for OA were allowed, provided the current treatment regimens had not been altered for a period of at least three months. […] Canines participating in the study were also fitted with pedometers (Draco Tech International, Taiwan) to quantitatively track changes in daily activity during the course of the study. […] The pedometers were fitted onto the collars at the clinic, and owners were instructed on care and maintenance of the pedometers and provided a log book to record the daily pedometer readings. Pedometer readings were recorded on a daily basis starting one week prior to the study and continuing throughout the two-week trial period. The daily pedometer readings recorded throughout an entire week (7-day period) were used to determine the average daily activity during the baseline period (one week prior to the start of the study) and the first and second weeks of the trial. […]"}, "TLR-3": {"tested_on": "TLR-3", "assay": "TLR expression in exposed cells (real time PCR or immunofluorescent staining)", "type": "cell-based", "excerpt": "(§1) In one embodiment, the anti-inflammatory agent may include ethyl (α-guanido-methyl) ethanoate (“Alpha-GEE”). […] Toll receptors act as a key part of our body's recognition mechanism and appear to be a major factor in the onset and/or progression of various medical indications including those that involve inflammation and pain. In particular, real time PCR or immunofluorescent staining of exposed cells was used to assess expression of toll-like receptor-2 (TLR-2), TLR-3, TLR-4, and TLR-7. […] Without being bound by any particular theory, the mechanism by which TLR expression seems to be altered involves decreased pro-inflammatory mediator production in the wake of exposure to Alpha-GEE."}, "TLR-4": {"tested_on": "TLR-4", "assay": "TLR expression in exposed cells (real time PCR or immunofluorescent staining)", "type": "cell-based", "excerpt": "as §1"}, "TLR-7": {"tested_on": "TLR-7", "assay": "TLR expression in exposed cells (real time PCR or immunofluorescent staining)", "type": "cell-based", "excerpt": "as §1"}, "[3]": {"tested_on": "toll-like receptor-2 (TLR-2)", "assay": "TLR expression in exposed cells (real time PCR or immunofluorescent staining)", "type": "cell-based", "excerpt": "as §1"}, "cyclooxygenase-1 (COX-1)": {"biological_target": "cyclooxygenase-1 (COX-1) (Homo sapiens, UniProt P23219)", "sequence (P23219 24-599, species assumed)": "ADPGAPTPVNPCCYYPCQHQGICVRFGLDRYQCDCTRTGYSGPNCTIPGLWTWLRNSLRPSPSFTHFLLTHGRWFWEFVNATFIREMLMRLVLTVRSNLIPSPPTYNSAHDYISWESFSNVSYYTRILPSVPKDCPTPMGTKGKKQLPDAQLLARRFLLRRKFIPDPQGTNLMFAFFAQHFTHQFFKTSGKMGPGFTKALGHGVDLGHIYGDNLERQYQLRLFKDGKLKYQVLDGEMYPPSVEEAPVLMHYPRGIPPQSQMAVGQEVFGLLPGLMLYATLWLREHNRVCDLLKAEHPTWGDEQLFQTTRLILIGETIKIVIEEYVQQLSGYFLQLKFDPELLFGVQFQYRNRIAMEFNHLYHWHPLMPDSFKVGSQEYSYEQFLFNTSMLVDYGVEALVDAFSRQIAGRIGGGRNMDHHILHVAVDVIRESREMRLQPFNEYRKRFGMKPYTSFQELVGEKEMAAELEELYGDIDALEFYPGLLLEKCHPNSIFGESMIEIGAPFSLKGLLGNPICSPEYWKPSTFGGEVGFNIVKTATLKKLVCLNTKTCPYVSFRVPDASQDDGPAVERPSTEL", "assay": "Inhibition of cyclooxygenase-1 activity"}},
  "data": [
    {"substance": "ethyl (α-guanido-methyl) ethanoate [Alpha-GEE]", "values": [
      {"measurement": "reduction in HCPI score", "setting": "canines having OA [1]; after the first week, 36 mg/kg/day oral, not statistically different from placebo", "value": "10-15%"},
      {"measurement": "HCPI score, post-trial value", "setting": "canines having OA [1]; after two weeks, 36 mg/kg/day oral, pre-trial value 28, scale 0 to 44", "value": 15},
      {"measurement": "HCPI scores at the conclusion of the study versus placebo", "setting": "canines having OA [1]; two weeks, p<0.001", "value": "significantly different"},
      {"measurement": "magnitude of change in HCPI scores during the entire trial (mean+SD)", "setting": "canines having OA [1]; two weeks, range 2 to 20, placebo 3+4", "value": "13+7"},
      {"measurement": "increase in daily pedometer readings (mobility)", "setting": "canines having OA [2]; first week versus baseline week, p<0.05 vs placebo", "value": "approximately 20%"},
      {"measurement": "increase in daily pedometer readings (mobility, physical activity)", "setting": "canines having OA [2]; second week versus baseline week, p<0.01 vs placebo", "value": "approximately 30%"},
      {"measurement": "expression of TLR-3 in cells", "setting": "TLR-3", "value": "increases expression"},
      {"measurement": "expression of TLR-4 in cells", "setting": "TLR-4", "value": "increases expression"},
      {"measurement": "expression of TLR-7 in cells", "setting": "TLR-7", "value": "increases expression"},
      {"measurement": "expression of TLR-2 in cells", "setting": "[3]", "value": "increases expression"},
      {"measurement": "inhibition of COX-1 activity", "setting": "cyclooxygenase-1 (COX-1); 0.1 μM", "value": "about 20%"},
      {"measurement": "inhibition of COX-1 activity", "setting": "cyclooxygenase-1 (COX-1); 1 μM (first of three values printed for '1 μM and 100 μM')", "value": "about 20%"},
      {"measurement": "inhibition of COX-1 activity", "setting": "cyclooxygenase-1 (COX-1); 100 μM (third of three values printed for '1 μM and 100 μM')", "value": "about 15%"},
      {"measurement": "concentration dependency of inhibition of COX-1", "setting": "cyclooxygenase-1 (COX-1); 0.1-100 μM, FIG. 2", "value": "did not show a concentration dependency"},
      {"measurement": "inhibition of COX-1 activity", "setting": "cyclooxygenase-1 (COX-1); concentration not printed (second of three values printed for '1 μM and 100 μM')", "value": "about 15%"}
    ]}
  ]
}
